Experimental data: article PMC10298284, “Synthesis and hLDH Inhibitory Activity of Analogues to Natural Products with 2,8-Dioxabicyclo[3.3.1]nonane Scaffold” (International Journal of Molecular Sciences, 2023)
Where “and” joins values, the source holds several entries; their conditions need not be identical. Equal values may be shown once. Read-outs that look alike come from different tables or passages of the source.

Columns and labels:
recombinant human LDHB [1] = biological target: T1, recombinant human LDHB (Homo sapiens, UniProt P07195); test: hLDHB enzymatic activity assay (same fluorimetric protocol); format: biochemical; settings: mean ± SD of n = 3 replicates
T1 construct: purchased Abcam
Method: (§1) Briefly, the decrease in the coenzyme β-NADH fluorescence (λemission = 460 nm) was measured for 10 min, at different concentration of inhibitors, and its slope was compared with the one obtained when there were not inhibitors added (100% enzymatic activity).
The ability of the synthesized compounds to inhibit the hLDHB enzyme was measured using recombinant human LDHB (95%, specific activity >300 units/mg and concentration of 1.0 mg/mL, Abcam, Cambridge, UK) following the same fluorimetric protocol described in Section 3.4.

recombinant human LDHA [2] = biological target: T2, recombinant human LDHA (Homo sapiens, UniProt P00338); design: method as in PMID 36113265; settings: compounds evaluated previously, cited from earlier work; for IC50: included for comparative purposes, read-out: hLDHA IC50; for Selectivity Rate (IC50 hLDHB/hLDHA): ratio IC50 hLDHB / IC50 hLDHA
T2 construct: purchased Abcam

recombinant human LDHB [3] = biological target: T1, recombinant human LDHB; design: method as in PMID 36113265; settings: compounds evaluated previously, included for comparative purposes; read-out: hLDHB IC50; cited from earlier work
recombinant human LDHA [4] = biological target: T2, recombinant human LDHA; test: hLDHA enzymatic activity assay (kinetic spectrofluorimetric, β-NADH fluorescence decrease); format: biochemical; settings: for IC50: mean ± SD of n = 3 replicates; for Selectivity Rate (IC50 hLDHB/hLDHA): ratio IC50 hLDHB / IC50 hLDHA
Method: as §1
The enzymatic assay was conducted on 96-well microplates and the decrease in the β-NADH fluorescence (λexcitation = 340 nm; λemission = 460 nm) was detected in a TECAN Infinite 200 Pro M Plex fluorescent plate reader (Tecan Instrument, Inc.) at 28 °C. The activity was determined according to our previously described protocol. The final volume in each well was set to 200 µL using 100 mM potassium phosphate buffer, 0.041 units/mL LDHA, 155 µM β-NADH, 1 mM pyruvate (saturated conditions), and DMSO solutions (5%, v/v) of pure compounds at concentrations in the range of 1–600 µM. The addition of pyruvate allowed the beginning of the reaction and fluorescence was registered every 60 s during 10 min. A lineal time interval was selected to calculate the slope at every single concentration. […] The slope obtained at each concentration was compared to the one obtained for the 100% enzymatic activity control to determine the corresponding enzymatic activity. A nonlinear regression analysis in GraphPad Prism version 9.00 for Windows (GraphPad Software, La Jolla, CA, USA) was used for dose response curve, fitting of logarithm of inhibitor concentration vs. normalized enzymatic activity, to calculate IC50 values (Supplementary Material section). All measurements were made in triplicate and data were expressed as the mean ± SD.

[5] = supplementary dose response curves, µM only on the axis label, read-out: IC50 (hLDHB inhibition curve)
[6] = 1 mM pyruvate, 155 µM β-NADH, pH 7.3, 28 °C, read-out: hLDHA IC50
[7] = supplementary dose response curves, µM only on the axis label, read-out: IC50 (hLDHA inhibition curve)

T1 sequence (P07195 whole entry): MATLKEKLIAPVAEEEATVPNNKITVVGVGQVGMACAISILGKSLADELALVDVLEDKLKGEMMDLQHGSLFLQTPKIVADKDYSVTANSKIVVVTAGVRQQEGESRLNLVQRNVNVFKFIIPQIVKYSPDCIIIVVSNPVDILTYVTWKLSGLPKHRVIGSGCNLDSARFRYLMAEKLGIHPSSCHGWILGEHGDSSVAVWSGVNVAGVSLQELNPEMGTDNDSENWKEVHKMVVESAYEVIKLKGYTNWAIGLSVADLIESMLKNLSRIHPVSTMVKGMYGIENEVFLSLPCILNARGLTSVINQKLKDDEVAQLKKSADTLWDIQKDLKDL

| Compound | IC50 (recombinant human LDHB [1]; [5]) | IC50 (recombinant human LDHA [2]) | Selectivity Rate (IC50 hLDHB/hLDHA) (recombinant human LDHA [2]) | IC50 (recombinant human LDHB [3]) | IC50 (recombinant human LDHB [1]; read-out: hLDHB IC50) | IC50 (recombinant human LDHA [4]; [6]) | Selectivity Rate (IC50 hLDHB/hLDHA) (recombinant human LDHA [4]) | IC50 (recombinant human LDHA [4]; [7]) | melting point | Selectivity Rate (IC50 hLDHB/hLDHA) (recombinant human LDHA [4]; listed as 50) | Selectivity Rate (IC50 hLDHB/hLDHA) (recombinant human LDHA [4]; listed as 65a) | Selectivity Rate (IC50 hLDHB/hLDHA) (recombinant human LDHA [4]; listed as 67a) |
| --- | --- | --- | --- | --- | --- | --- | --- | --- | --- | --- | --- | --- |
| Oc1cc(O)c2c(c1)OC1(c3ccc(O)c(O)c3)CC2c2ccccc2O1 (racemic) [(±)-1] | 35.4 ± 0.8 µM | 73.1 ± 2.5 µM | 0.5 | – | – | – | – | – | – | – | – | – |
| O=[N+]([O-])c1ccc2c(c1)C1CC(c3ccc(O)c(O)c3)(O2)Oc2cc(O)cc(O)c21 (racemic) [(±)-2] | – | 9.7 ± 1.1 µM | 3.0 | 28.6 ± 1.9 µM | – | – | – | – | – | – | – | – |
| Oc1cc(O)c2c(c1)OC1(c3ccc(O)c(O)c3)CC2c2cc(Cl)ccc2O1 (racemic) [(±)-3] | – | 15.7 ± 2.7 µM | 2.5 | 39.7 ± 2.8 µM | – | – | – | – | – | – | – | – |
| Oc1ccc(C23CC(c4ccccc4O2)c2c(O)cc(O)cc2O3)cc1 (racemic) [(±)-4] | 45.9 ± 1.5 µM | 60 ± 4.7 µM | 0.8 | – | – | – | – | – | – | – | – | – |
| O=[N+]([O-])c1ccc2c(c1)C1CC(c3ccc(O)cc3)(O2)Oc2cc(O)cc(O)c21 (racemic) [(±)-5] | – | 24.4 ± 2.7 µM | 2.9 | 69.7 ± 4.7 µM | – | – | – | – | – | – | – | – |
| Oc1ccc(C23CC(c4cc(Cl)ccc4O2)c2c(O)cc(O)cc2O3)cc1 (racemic) [(±)-6] | – | 26.7 ± 0.8 µM | 3.2 | 85.5 ± 2.5 µM | – | – | – | – | – | – | – | – |
| O=c1oc2ccccc2c2c1C1CC(c3ccc(O)c(O)c3)(Oc3ccc(Cl)cc31)O2 (racemic) [(±)-47, 2-(3′,4′-Dihydroxyphenyl)-6-chlorochromane-(4→3″, 2→O-4″)-4″-hydroxycoumarin] | – | – | – | – | 14.3 ± 0.9 µM | < 10 µM and 9.1 µM | 1.6 | 9.1 ± 0.5 µM | 98 to 100 °C (dec.) | – | – | – |
| COc1ccc(C23CC(c4cc([N+](=O)[O-])ccc4O2)c2c(c4ccccc4oc2=O)O3)cc1OC (racemic) [(±)-49, 2-(3′,4′-Dimethoxyphenyl)-6-nitrochromane-(4→3″, 2→O-4″)-4″-hydroxycoumarin] | – | – | – | – | 212.3 ± 1.4 µM | 25.7 ± 0.3 µM | 8.3 | 25.7 ± 0.3 µM | 142 to 144 °C | – | – | – |
| COc1ccc(C23CC(c4cc(Cl)ccc4O2)c2c(c4ccccc4oc2=O)O3)cc1OC (racemic) [(±)-50, 2-(3′,4′-Dimethoxyphenyl)-6-chlorochromane-(4→3″, 2→O-4″)-4″-hydroxycoumarin] | – | – | – | – | > 300 µM | 13.2 ± 0.8 µM | >22.7 | 13.2 ± 0.8 µM | 130 to 133 °C | > 10 | – | – |
| O=C1C2=C(C(=O)c3ccccc31)C1CC(c3ccc(O)c(O)c3)(O2)Oc2ccc(Cl)cc21 (racemic) [(±)-56, 2-(3′,4′-Dihydroxyphenyl)-6-chlorochromane-(4→3″, 2→O-2″)-2″-hydroxy-1″,4″-naphthoquinone] | – | – | – | – | 119 ± 2.7 µM | 13.7 ± 0.6 µM | 8.7 | 13.7 ± 0.6 µM | 300 to 302 °C (dec.) | – | – | – |
| COc1ccc(C2CC3=C(C(=O)O2)C2CC(c4ccc(OC)c(OC)c4)(O3)Oc3ccccc32)cc1 (racemic) [(±)-64a, 2-(3′,4′-Dimethoxyphenyl)-chromane-(4→3″, 2→O-4″)-4″-hydroxy-6″-(4‴-methoxyphenyl)-5″,6″-dihydro-2H-pyran-2″-one] | – | – | – | – | > 300 µM | 52.8 ± 5.3 µM | >5.7 | 52.8 ± 5.3 µM | 172 to 175 °C | – | – | – |
| COc1ccc(C23CC(C4=C(CC(c5ccccc5)OC4=O)O2)c2cc([N+](=O)[O-])ccc2O3)cc1OC (racemic) [(±)-65a, 2-(3′,4′-Dimethoxyphenyl)-6-nitrochromane-(4→3″, 2→O-4″)-4″-hydroxy-6″-phenyl-5″,6″-dihydro-2H-pyran-2″-one] | – | – | – | – | 269 ± 11 µM | 12.5 ± 1.1 µM | 21.5 | 12.5 ± 1.1 µM | 198 to 200 °C | – | > 10 | – |
| COc1ccc(C23CC(C4=C(CC(c5ccc(Cl)cc5)OC4=O)O2)c2cc([N+](=O)[O-])ccc2O3)cc1OC (racemic) [(±)-66a, 2-(3′,4′-Dimethoxyphenyl)-6-nitrochromane-(4→3″, 2→O-4″)-6″-(4‴-chlorophenyl)-4″-hydroxy-5″,6″-dihydro-2H-pyran-2″-one] | – | – | – | – | 28.1 ± 0.4 µM | < 10 µM and 5.8 µM | 4.8 | 5.8 µM | 194 to 196 °C | – | – | – |
| COc1ccc(C2CC3=C(C(=O)O2)C2CC(c4ccc(OC)c(OC)c4)(O3)Oc3ccc([N+](=O)[O-])cc32)cc1 (racemic) [(±)-67a, 2-(3′,4′-Dimethoxyphenyl)-6-nitrochromane-(4→3″, 2→O-4″)-4″-hydroxy-6″-(4‴-methoxyphenyl)-5″,6″-dihydro-2H-pyran-2″-one] | – | – | – | – | > 300 µM | 14.8 ± 0.6 µM | >20.3 | 14.8 ± 0.6 µM | 162 to 164 °C | – | – | > 10 |
| COc1ccc(C23CC(C4=C(CC(c5ccc(Cl)cc5)OC4=O)O2)c2cc(Cl)ccc2O3)cc1OC (racemic) [(±)-69a, 2-(3′,4′-Dimethoxyphenyl)-6-chlorochromane-(4→3″, 2→O-4″)-6″-(4‴-chlorophenyl)-4″-hydroxy-5″,6″-dihydro-2H-pyran-2″-one] | – | – | – | – | 141 ± 2.5 µM | 20 ± 0.6 µM | 7.1 | 20 ± 0.6 µM | 172 to 175 °C | – | – | – |
| COc1ccc(C2CC3=C(C(=O)O2)C2CC(c4ccc(OC)c(OC)c4)(O3)Oc3ccc(Cl)cc32)cc1 (racemic) [(±)-70a, 2-(3′.4′-Dimethoxyphenyl)-6-chlorochromane-(4→3″, 2→O-4″)-4″-hydroxy-6″-(4‴-methoxyphenyl)-5″,6″-dihydro-2H-pyran-2″-one] | – | – | – | – | > 300 µM | 112 ± 3 µM | >2.7 | 112 ± 3 µM | 108 to 111 °C | – | – | – |
